In assay [1] the target is T1, bacterially-produced Sestrin2 (Homo sapiens, UniProt P58004).
T1 construct: made in house; host or cells: Escherichia coli BL21 DE3 star
T1 sequence (P58004 1-480): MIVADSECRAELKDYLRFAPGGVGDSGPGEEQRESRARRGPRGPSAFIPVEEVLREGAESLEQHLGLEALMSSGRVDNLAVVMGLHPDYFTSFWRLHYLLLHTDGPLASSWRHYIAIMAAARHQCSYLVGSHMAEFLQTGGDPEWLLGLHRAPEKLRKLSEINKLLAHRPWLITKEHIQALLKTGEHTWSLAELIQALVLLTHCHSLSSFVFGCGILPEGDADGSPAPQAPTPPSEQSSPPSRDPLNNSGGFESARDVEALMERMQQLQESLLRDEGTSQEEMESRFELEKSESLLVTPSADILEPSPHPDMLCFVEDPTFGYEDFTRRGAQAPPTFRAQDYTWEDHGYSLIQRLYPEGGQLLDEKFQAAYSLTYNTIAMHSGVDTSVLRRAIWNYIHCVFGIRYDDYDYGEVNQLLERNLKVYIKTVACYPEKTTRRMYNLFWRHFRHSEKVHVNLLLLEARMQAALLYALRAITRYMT
In words: Thermal shift (protein melting) assay. The class given is binding. Conditions: Sestrin2 at 4 μM, Sypro orange; read-out: shift of the melting temperature of Sestrin2. Here is the method:
Specific binding of leucine to the bacterially produced Sestrin2 was further confirmed by thermal shift assays. The thermal shift (protein melting) assays were performed according to the LightCycler® 480 instruction manual. Briefly, for Sestrin2, 5× Sypro® orange dye and Sestrin2 at 4 μM were combined with or without leucine or arginine (at the indicated concentrations) in thermal shift buffer (100 mM Tris pH 7.4, 100 mM NaCl, and 1 mM DTT) in a volume of up to 10 μl in one well of a LightCycler® Multiwell 384-well plate. 20× Sypro® orange dye was used for the two control proteins, human choline acetyltransferase (ChAT) (at 4 μM) or Physconitrella patens hydroxycinnamoyl transferase (PpHCT) (at 2.5 μM). Each condition was tested in triplicate. The plate was subjected to a protocol in which the temperature increased from 20° to 85° C. at 0.06° C./second. Fluorescence was recorded and plotted over time, and melting temperatures were calculated as described in the LightCycler® 480 instruction manual. Briefly, the negative first derivative of the curve shown (change in fluorescence/change in temperature) was plotted against the temperature. The peak (i.e., lowest point on this curve) reflects the melting temperature. Each reported melting temperature is the mean±SD for three replicates from one experiment.

Assay [2] addresses T1, bacterially-produced Sestrin2. The assay is described as follows: [3H]-leucine binding to bacterially-produced His-MBP-Sestrin2 on Ni-NTA resin. The following applies: RagA-RagC heterodimer as control. As for the experimental part:
Recombinant Sestrin2 was expressed in Escherichia coli (strain BL21 DE3 star) from the His-MBP-TEV-Sestrin2 in pMAL6H-CSXT plasmid. The bacterial cultures were grown at 30° C. to an optical density of 0.4 at which point the temperature was lowered to 18° C. After 30 minutes at 18° C., the cultures were induced overnight at 18° C. with 0.5 mM IPTG. The cells were subsequently resuspended in lysis buffer with TCEP (50 mM Tris pH 7.4, 200 mM NaCl, 5 mM MgCl2, 0.1% CHAPS, 1 mM TCEP, 200 μM leucine, and protease inhibitor tablets), which was then supplemented with lysozyme and crude DNAse. The cells underwent mechanical homogenization and the lysates were cleared by centrifugation and then loaded onto the Ni-NTA resin. […]
For binding assays performed with bacterially-produced proteins, 23.6 μg His-RagA/RagC, 23.6 μg His-MBP-TEV-Sestrin2, or 73.6 μg His-MBP-TEV-Sestrin2 were diluted into 500 μl lysis buffer (50 mM Tris pH 7.4, 200 mM NaCl, 5 mM MgCl2, 0.1% CHAPS) and incubated with 15 μl compact Ni-NTA resin as previously described. […] The samples were then well mixed with a cut tip and 10 μl of each was loaded into scintillation fluid in triplicate and quantified with a TriCarb® Scintillation Counter. Samples performed in parallel were eluted with lysis buffer+300 mM imidazole and analyzed by SDS-PAGE as described above.

Assay [3] deals with T2, Sestrin2-GATOR2 complex (Homo sapiens, UniProt P58004).
T2 construct: To isolate the FLAG-WDR24/endogenous-Sestrin2 complex; endogenous in cells; host or cells: HEK-293T cells stably expressing FLAG-WDR24; Sestrin2 and the other GATOR2 subunits are endogenous
T2 sequence (P58004 1-480): T1 sequence (P58004 1-480)
In words: Amino acids added directly to immunopurified Sestrin2-GATOR2 complexes (immunoblot). It counts as binding. Here is the method: We next tested if leucine acts directly on the Sestrin2-GATOR2 complex.
HEK-293T cells stably expressing FLAG-WDR24 were starved for all amino acids for 50 minutes, lysed and subjected to anti-FLAG immunoprecipitation as described previously. The GATOR2-Sestrin2 complexes immobilized on the agarose beads were washed twice in lysis buffer with 500 mM NaCl, as previously described, and then incubated for 10 minutes in 1 mL of cytosolic buffer with the indicated concentrations of individual amino acids. The amount of GATOR2 and Sestrin2 that remained bound was assayed by SDS-PAGE and immunoblotting as described previously.
Background: A western blot detects proteins with antibodies after separation by electrophoresis.

`CC(C)C[C@H](N)C(=O)O` [leucine]: in assay [1], the ΔTm is at most 8.5 °C. In addition, the “binding of radiolabelled leucine to bacterially-produced Sestrin2” value in assay [2] is “bound to bacterially-produced Sestrin2”. For the same compound, the “effect on the Sestrin2-GATOR2 interaction in vitro” value in assay [3] (300 μM each, added directly to FLAG immunoprecipitates) is listed as “disrupted the interaction”. The EC50 in assay [3] (added to purified complexes from amino acid-starved cells, equilibrium not attained, relative potency only, read-out: half maximal effect on disruption of the Sestrin2-GATOR2 complex) was about 1000 nM.

Source of the values: patent US10168338B2, “Methods of identifying modulators of sestrin-gator-2 interaction for modulating mTORC1 activity” (Whitehead Institute for Biomedical Research, priority 2014, dated 2019).
